Assay results as given in PubChem BioAssay (NCI).
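All cell lines were grown in 96-well plates and treated with compound for 48 hours. GI50 is the concentration that inhibits growth by half. At the TGI there is no net growth.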

Assays:
Experiment in all cases: inhibition of tumour cell growth, NCI panel, 48 h
KM12 colon = system: KM12 colon
TK-10 renal = system: TK-10 renal
HCT-116 colon = system: HCT-116 colon
M14 melanoma = system: M14 melanoma
NCI/ADR-RES ovarian = system: NCI/ADR-RES ovarian
COLO 205 colon = system: COLO 205 colon
786-0 renal = system: 786-0 renal
SNB-19 CNS = system: SNB-19 CNS
DMS 273 small cell lung = system: DMS 273 small cell lung
M19-MEL melanoma = system: M19-MEL melanoma
SNB-78 CNS = system: SNB-78 CNS

Compound	GI50 (KM12 colon) [µM]	TGI (KM12 colon) [µM]	GI50 (TK-10 renal) [µM]	TGI (TK-10 renal) [µM]	GI50 (HCT-116 colon) [µM]	TGI (HCT-116 colon) [µM]	GI50 (M14 melanoma) [µM]	TGI (M14 melanoma) [µM]	GI50 (NCI/ADR-RES ovarian) [µM]	TGI (NCI/ADR-RES ovarian) [µM]	GI50 (COLO 205 colon) [µM]	TGI (COLO 205 colon) [µM]	GI50 (786-0 renal) [µM]	TGI (786-0 renal) [µM]	GI50 (SNB-19 CNS) [µM]	TGI (SNB-19 CNS) [µM]	TGI (DMS 273 small cell lung) [µM]	TGI (M19-MEL melanoma) [µM]	TGI (SNB-78 CNS) [µM]
O=P(CCCCP(=O)(c1ccccc1)c1ccccc1)(c1ccccc1)c1ccccc1.[Cl][Sn]([Cl])([c]1ccccc1)[c]1ccccc1	3.05	10.5	1.77	3.32	1.71	> 100	1.77	3.81	2.96	10.8	1.78	3.98	1.07	2.48	4.18	18			
CN(C)CC1C(=O)O[C@H]2[C@H]1CC/C(COC(=O)c1cc3ccccc3[nH]1)=C\CC[C@@]1(C)O[C@@H]21 (some centres undefined)	3.23	10.8	2.04	3.98	0.577	1.57	1.76	4.29	1.76	4.6	2.16	5.5	1.69	4.88	11.4	25.9			
COc1ccc(S(=O)(=O)Nc2cc(/C=C\c3cc(OC)c(OC)c(OC)c3)ccc2OC)cc1	0.0738	> 100	0.0768	11.5	0.0797	> 100	0.103	> 100	0.0711	30.8	0.0383	0.158	0.361	95.6	0.352	> 100			
O=C(NCCCCCCNC(=O)OCCSCCn1cc(C(=O)NC(=O)OCc2ccccc2)c(=O)[nH]c1=O)OCCSCCn1cc(C(=O)NC(=O)OCc2ccccc2)c(=O)[nH]c1=O		> 100		> 100				> 100				> 100		> 100		> 100	> 100	> 100	> 100
COc1ccc(/C=C(\C#N)n2nnc3ccccc32)cc1	0.0948	> 21.7	2.22	58.6	0.0955	2.15	0.071	2.02	0.0604	28.2	0.0849	1.31	0.63	7.22	0.361	13.3			
COc1ccc(CC(=O)NCCc2ccc(OC)c(OC)c2)cc1Br		> 100		> 100								> 100		> 100		> 100	> 100		
C=C1C(=O)OC2C=C(CCC(C)=O)C(C)C(OC(C)=O)CC12 (centres undefined)		30.5		24.4		21.2		20.7						21.4		37.2		64.7	27.4
CN(C)CCCN1c2ccccc2C(C)(C)c2ccccc21		28.3		27.2		27.9		28.8		31.8		27.8		27.7		28.8			
Cc1cc(NCc2cc(Nc3ccnc4cc(Cl)ccc34)ccc2F)nc(N2CCN(C)CC2)n1	2.11	6.5	2.03	5.49	1.25	2.88	1.56	3.13	2.36	7.72	1.72	3.66	1.44	2.88	2.72	12.9			
Cc1cc(NS(=O)(=O)c2ccc(NC(=O)c3ccc(Cl)c4c(Nc5ccc(S(=O)(=O)N=C(N)N)cc5)c5ccccc5nc34)cc2)no1		> 100		> 100		> 100		> 100						> 100		> 100		> 100	> 100
CC(C)COCC(CN(Cc1ccccc1)c1ccccc1)N1CCCC1 (centres undefined)	3.54	13.7	3.43	12	2.52	10.4	2.3	5.76	3.12	14.4	1.53	3.52	3.46	12.8	3.07	12.2			
C[N+]1(C)C/C(=C\c2ccccc2)C(=O)/C(=C/c2ccccc2)C1		> 100		> 100		> 100		> 100				> 100		> 100			> 100	> 100	> 100
CCN1Cc2c(ccc(F)c2C#N)O[C@@H](C)CNC(=O)c2c(N)nn3ccc1nc23		69.7	1.29	11.7	1.25	11.5	0.678	11.1	6.03	56.3	0.815	3.74	2.85	15.9	8.93	39.3			
CN1C(=O)C(CC(=O)O)NC1=S (centres undefined)		> 100		> 100		> 100		> 100		> 100		> 100		> 100		> 100			
CCCC/C=C1\CCC(C)(CN(C)C)C1=O (centres undefined)		> 100		> 100		> 100		> 100						> 100				29	> 100
COc1ccccc1C1c2cc3c(cc2OC(O)(CO)C1C(=O)O)OCO3 (centres undefined) (tested in a mixture with another compound)		> 100		> 100		> 100		> 100				> 100		> 100			> 100	> 100	> 100
C=C1C(=O)O[C@H]2[C@H]1CCC(/C=N/c1ncc(Br)cc1N)=C\CC[C@@]1(C)O[C@@H]21	5.07	20.2	1.6	3.19	1.06	2.46	1.89	5.36	3.11	21.9	1.65	3.59	1.72	3.52	10.1	24.7			
